Assays:
Type in all cases: in vivo
Set-up in all cases: key: 1=total damage; 9=no action; Ratings of from 1 to 4 (especially from 1 to 3) indicate good to very good herbicidal action
[1] = system: Stellaria; assay: Post-emergence herbicidal action (Example B2); conditions: 2000 g a.i./ha, sprayed at 4- to 6-leaf stage, evaluated after approximately 18 days, scale of nine ratings
Experimental: (§1) Monocotyledonous and dicotyledonous test plants are grown in a greenhouse in plastics pots containing standard soil and at the 4- to 6-leaf stage are sprayed with an aqueous suspension or emulsion of the test substances of formula I, prepared from a 25% emulsifiable concentrate (Example F1, c) in WO 97/34485, pages 9 and 10), at a rate of application corresponding to 2000 g of active ingredient/ha (500 liters water/ha). The test plants are then grown on in the greenhouse under optimum conditions. After approximately 18 days' test duration, the test is evaluated in accordance with a scale of nine ratings (1=total damage, 9=no action). Ratings of from 1 to 4 (especially from 1 to 3) indicate good to very good herbicidal action.
(§2) Test plants: Avena, Setaria, Sinapis, Stellaria

[2] = system: Avena; assay: Post-emergence herbicidal action (Example B2); conditions: 2000 g a.i./ha, sprayed at 4- to 6-leaf stage, evaluated after approximately 18 days, scale of nine ratings
Experimental: as §1, §2

[3] = system: Sinapis; assay: Post-emergence herbicidal action (Example B2); conditions: 2000 g a.i./ha, sprayed at 4- to 6-leaf stage, evaluated after approximately 18 days, scale of nine ratings
Experimental: as §1, §2

[4] = system: Setaria; assay: Post-emergence herbicidal action (Example B2); conditions: 2000 g a.i./ha, sprayed at 4- to 6-leaf stage, evaluated after approximately 18 days, scale of nine ratings
Experimental: as §1, §2

[5] = system: Stellaria; assay: Pre-emergence herbicidal action (Example B1); conditions: 2000 g a.i./ha, sprayed immediately after sowing, evaluated after 3 weeks, scale of nine ratings
Experimental: (§3) Monocotyledonous and dicotyledonous test plants are sown in standard soil in plastics pots. Immediately after sowing, the test compounds, each in the form of an aqueous suspension or emulsion prepared from a 25% emulsifiable concentrate (Example F1, c) in WO 97/34485, pages 9 and 10), are applied by spraying at a rate of application of 2000 g of active ingredient/ha (500 liters water/ha). The test plants are then grown in a greenhouse under optimum conditions. After 3 weeks' test duration, the test is evaluated in accordance with a scale of nine ratings (1=total damage, 9=no action). Ratings of from 1 to 4 (especially from 1 to 3) indicate good to very good herbicidal action.
as §2

[6] = system: Avena; assay: Pre-emergence herbicidal action (Example B1); conditions: 2000 g a.i./ha, sprayed immediately after sowing, evaluated after 3 weeks, scale of nine ratings
Experimental: as §3, §2

[7] = system: Sinapis; assay: Pre-emergence herbicidal action (Example B1); conditions: 2000 g a.i./ha, sprayed immediately after sowing, evaluated after 3 weeks, scale of nine ratings
Experimental: as §3, §2

[8] = system: Setaria; assay: Pre-emergence herbicidal action (Example B1); conditions: 2000 g a.i./ha, sprayed immediately after sowing, evaluated after 3 weeks, scale of nine ratings
Experimental: as §3, §2

Cn1nc(-c2c(Cl)cc(Cl)c(=O)n2C)c(Cl)c1OC(F)F [Example 1.003]
1: Post-emergence action: Stellaria (rating) [1] | Post-emergence action: Avena (rating) [2] | Post-emergence action: Sinapis (rating) [3] | Post-emergence action: Setaria (rating) [4] | Pre-emergence action: Stellaria (rating) [5] | Pre-emergence action: Avena (rating) [6] | Pre-emergence action: Sinapis (rating) [7] | Pre-emergence action: Setaria (rating) [8]

Cn1nc(-c2ccc(Cl)c(=O)n2C)c(Cl)c1OC(F)F [Example 1.001]
1: Post-emergence action: Stellaria (rating) [1] | Post-emergence action: Avena (rating) [2] | Post-emergence action: Sinapis (rating) [3] | Post-emergence action: Setaria (rating) [4] | Pre-emergence action: Stellaria (rating) [5] | Pre-emergence action: Avena (rating) [6] | Pre-emergence action: Sinapis (rating) [7] | Pre-emergence action: Setaria (rating) [8]

Cn1nc(-c2c(F)cc(Cl)c(=O)n2Cc2ccccc2)c(Cl)c1OC(F)F [Example 1.111]
1: Post-emergence action: Sinapis (rating) [3] | Post-emergence action: Setaria (rating) [4] | Pre-emergence action: Stellaria (rating) [5] | Pre-emergence action: Sinapis (rating) [7] | Pre-emergence action: Setaria (rating) [8]
2: Post-emergence action: Stellaria (rating) [1] | Post-emergence action: Avena (rating) [2] | Pre-emergence action: Avena (rating) [6]

CCCCn1c(-c2nn(C)c(OC(F)F)c2Cl)c(F)cc(Cl)c1=O [Example 1.010]
1: Post-emergence action: Stellaria (rating) [1] | Post-emergence action: Avena (rating) [2] | Post-emergence action: Sinapis (rating) [3] | Post-emergence action: Setaria (rating) [4] | Pre-emergence action: Stellaria (rating) [5] | Pre-emergence action: Avena (rating) [6] | Pre-emergence action: Sinapis (rating) [7] | Pre-emergence action: Setaria (rating) [8]

CSCn1c(-c2nn(C)c(OC(F)F)c2Cl)c(F)cc(Cl)c1=O [Example 1.147]
1: Post-emergence action: Stellaria (rating) [1] | Post-emergence action: Avena (rating) [2] | Post-emergence action: Sinapis (rating) [3] | Post-emergence action: Setaria (rating) [4] | Pre-emergence action: Stellaria (rating) [5] | Pre-emergence action: Avena (rating) [6] | Pre-emergence action: Sinapis (rating) [7] | Pre-emergence action: Setaria (rating) [8]

C#CCn1c(-c2nn(CC)c(OC(F)F)c2Cl)c(F)cc(Cl)c1=O [Example 7.100]
1: Post-emergence action: Stellaria (rating) [1] | Post-emergence action: Avena (rating) [2] | Post-emergence action: Sinapis (rating) [3] | Post-emergence action: Setaria (rating) [4] | Pre-emergence action: Stellaria (rating) [5] | Pre-emergence action: Avena (rating) [6] | Pre-emergence action: Sinapis (rating) [7] | Pre-emergence action: Setaria (rating) [8]

CCOC(=O)Cn1c(-c2nn(C)c(OC(F)F)c2Cl)c(F)cc(Cl)c1=O [Example 1.181]
1: Post-emergence action: Stellaria (rating) [1] | Post-emergence action: Avena (rating) [2] | Post-emergence action: Sinapis (rating) [3] | Post-emergence action: Setaria (rating) [4] | Pre-emergence action: Stellaria (rating) [5] | Pre-emergence action: Avena (rating) [6] | Pre-emergence action: Sinapis (rating) [7] | Pre-emergence action: Setaria (rating) [8]

Cn1nc(-c2c(F)cc(Cl)c(=O)n2CC(=O)OCc2ccccc2)c(Cl)c1OC(F)F [Example 1.195]
1: Post-emergence action: Stellaria (rating) [1] | Post-emergence action: Avena (rating) [2] | Post-emergence action: Sinapis (rating) [3] | Post-emergence action: Setaria (rating) [4] | Pre-emergence action: Stellaria (rating) [5] | Pre-emergence action: Sinapis (rating) [7] | Pre-emergence action: Setaria (rating) [8]
3: Pre-emergence action: Avena (rating) [6]

Reference: patent publication US20020055639A1, “Pyrazole derivatives as herbicides” (priority 1997, published 2002)
